In article PMC11796312, “Multifunctional, Fluorene‐Based Modulator of Cholinergic and GABAergic Neurotransmission as a Novel Drug Candidate for Palliative Treatment of Alzheimer's Disease” (Angewandte Chemie (International Ed. in English), 2024):
Where two headings read alike, the source gives them in different places.

How the values were obtained:
eeAChE = biological target: T1, eeAChE (Electrophorus electricus, UniProt O42275); assay: Cholinesterase inhibition, Ellman's protocol, eeAChE; type: biochemical; conditions: read-out: eeAChE % inh.
T1 construct: purchased Sigma-Aldrich
Protocol: In vitro pharmacological assays.
The in vitro inhibitory activity toward cholinesterases (eeAChE, eqBuChE,
The target compounds were tested for their inhibitory potency against cholinesterases using
Ellman’s protocol[32] modified for 96-well microplates.
The stock solutions of the
target compounds were prepared in DMSO and diluted with water, giving the desired final
concentrations. The enzymes were prepared as 5 U/mL aqueous stock solutions and diluted
(AChE or BuChE) were added to the reaction mixture in the wells, containing 25 μL of the
target compound (in case of blank samples – water or water/DMSO mixture), 200 μL of 0.1
M phosphate buffer (pH = 8.0) and 20 μL of 5,5'-dithiobis-(2-nitrobenzoic acid) DTNB
All those reagents were preincubated for 5 min at 25 °C for the reactions with the
animal enzymes (eeAChE or eqBuChe) and 36 °C for the human enzyme ( hBuChE) tests. The
enzymatic reaction was initiated by the addition of 20 μL of substrate acetylthiocholine iodide
using the EnSpire multimode microplate reader (PerkinElmer, Waltham, MA, USA). Target
compounds were tested at the screening concentrations of 10 μM or 1 µM for inhibitory
potencies towards animal cholinesterases or human enzyme, respectively. Percent of enzyme
inhibition was calculated based on the formula 100 -(S/B)x100, where S and B were the
respective enzyme activities with and without the test compound, respectively. Compounds
with the enzyme inhibitory activities at 10 μM better than 50% ( eeAChE or eqBuChe) and at
were based on the absorbance measured at seven different inhibitor concentrations, then
percentages of enzymes’ inhibition were plotted against the applied inhibitor concentrations
using nonlinear regression (GraphPad Prism 9; GraphPad Software, San Diego, CA, USA).
All the experiments were performed in
a %inh. at an inhibitor concentration of 10 µM

mGAT3 = biological target: T2, mGAT3 (Mus musculus, UniProt P31649); assay: [3H]GABA uptake assay, mGAT3; type: cell-based
T2 sequence (P31649 1-602): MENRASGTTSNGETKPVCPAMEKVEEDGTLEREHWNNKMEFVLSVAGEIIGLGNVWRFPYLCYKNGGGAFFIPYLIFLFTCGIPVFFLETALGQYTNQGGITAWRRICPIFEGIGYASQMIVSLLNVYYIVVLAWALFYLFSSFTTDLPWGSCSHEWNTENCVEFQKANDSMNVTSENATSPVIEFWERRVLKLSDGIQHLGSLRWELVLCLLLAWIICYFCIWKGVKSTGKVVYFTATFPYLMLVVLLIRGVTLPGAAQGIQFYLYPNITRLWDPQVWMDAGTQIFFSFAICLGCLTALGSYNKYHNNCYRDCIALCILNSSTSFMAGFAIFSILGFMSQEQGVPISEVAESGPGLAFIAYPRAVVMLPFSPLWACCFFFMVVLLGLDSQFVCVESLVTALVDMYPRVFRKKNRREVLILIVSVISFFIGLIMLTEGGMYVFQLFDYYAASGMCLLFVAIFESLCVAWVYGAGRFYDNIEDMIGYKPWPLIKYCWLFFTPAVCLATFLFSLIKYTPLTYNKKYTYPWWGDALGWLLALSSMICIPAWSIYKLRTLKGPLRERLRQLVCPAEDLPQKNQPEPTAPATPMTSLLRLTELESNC

[1] = Cell viability, PrestoBlue (immunotoxicity); type: cell-based; conditions: mouse, 24 h, read-out: viability, immuntoxicity X [%]
Protocol: (§1) The mouse microglial cells (BV-2) were cultured using standard procedures. The cells were a generous gift from professor Bozena Kaminska-Kaczmarek from Laboratory of Molecular Neurobiology, Neurobiology Center, Nencki Institute of Experimental Biology, Polish Academy of Sciences, Warsaw, Poland. The cells were cultured in Dulbecco’s Modified Eagle’s Medium - high glucose, (DMEM, Glutamx ThermoFisher ) supplemented with 10% fetal bovine serum heat inactivated (ThermoFisher), with added 100 IU/ml penicillin (Sigma Aldrich) and 100 µg/ml streptomycin (Sigma Aldrich). […]
(§2) an area of 175 cm2 (Nunc), and incubated at 37◦C, 5% CO2. For the test of compounds with the BV-2 cells line, microglia cells were seeded on 96-well culture plate (Falcon) at a density of 2x10^4 cells per well in fresh medium. The cells were grown for 24 hours in the incubator (37°C, 5% CO2) before performing experiments. […]
(§3) Preparation of stock solutions of tested compounds
(§4) Stock solutions were prepared in the concentration of 10 mM for test and reference compounds. Minimum 1 mg of each tested compound was weighed and dissolved in appropriate volume of dimethyl sulfoxide. Serial dilutions were prepared in DMSO and then the diluted compounds were transferred to PBS. Before assays eventual precipitation or opalescence was checked. All experiments were performed in duplicates, in three independent experiments. Cell viability was measured after 24 hours of incubation with tested cell line.
(§5) Cell viability was evaluated using the Presto Blue reagent (Thermo Fisher), according to the manufacturer procedures. Following 24 hours of incubation with the tested molecule, PrestoBlue reagent was added to a microplate well in an amount equal to one tenth of the remaining medium volume. The resulting mixture was incubated for 15 minutes at 37°C, and the fluorescence intensity (EX 530; EM 580 nm) was measured in the plate reader POLARstar Omega, (BMG Labtech). The results (viability values) are provided as a percentage of live cells with respect to DMSO (control sample).
(§6) Viability values were calculated as a percentage of live cells with respect to the control sample (DMSO). The negative control was medium without cells. IC 50 was determined by […]
(§7) nonlinear regression analysis using GraphPad Prism 9.0 software. All values are expressed as […]
(§8) Table S10. The viability of cells. neurotoxicity immuntoxicity
(§9) The results (viability values) are provided as a percentage of live cells with respect to DMSO (control sample)
(§10) Table S11. The viability of cells.

[2] = test system: mouse microglial cells (BV-2); assay: Cell viability, PrestoBlue (immunotoxicity); type: cell-based; conditions: Mus musculus, BV-2, 24 h
Protocol: as §1, §2, §3, §4, §5, §6, §7, §8, §9, §10

T1 sequence (O42275 24-633): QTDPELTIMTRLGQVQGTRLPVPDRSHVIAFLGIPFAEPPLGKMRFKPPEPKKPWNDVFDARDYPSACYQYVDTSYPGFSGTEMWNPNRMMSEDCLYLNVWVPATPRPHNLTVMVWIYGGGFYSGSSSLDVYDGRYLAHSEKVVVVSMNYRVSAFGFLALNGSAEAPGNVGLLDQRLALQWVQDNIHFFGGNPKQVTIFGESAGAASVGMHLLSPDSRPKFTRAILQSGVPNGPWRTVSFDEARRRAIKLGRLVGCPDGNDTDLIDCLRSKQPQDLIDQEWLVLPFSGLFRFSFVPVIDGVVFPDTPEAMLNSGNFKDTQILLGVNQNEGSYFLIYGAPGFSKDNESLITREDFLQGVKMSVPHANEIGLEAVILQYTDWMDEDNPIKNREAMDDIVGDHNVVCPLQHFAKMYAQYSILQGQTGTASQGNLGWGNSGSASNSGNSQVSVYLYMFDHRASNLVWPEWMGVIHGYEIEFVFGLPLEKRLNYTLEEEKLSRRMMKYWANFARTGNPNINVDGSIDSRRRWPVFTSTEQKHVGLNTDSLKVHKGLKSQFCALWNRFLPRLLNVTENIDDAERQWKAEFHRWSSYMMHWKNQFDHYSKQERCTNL

O[C@H](CNCC1CC1)[C@H](Cc1ccccc1)NC1c2ccccc2-c2ccccc21 [Compound 6]
inhibition at 10 µM (eeAChE): < 10%
IC50 (mGAT3): 7.41 ± 0.69 µM
viability at 24 h, 0.1 µM ([1]; BV-2, 0.1 µM): 102%
viability at 24 h, 1 µM ([1]; BV-2, 1 µM): 103%
viability at 24 h, 10 µM ([1]; BV-2, 10 µM): 94.8%
viability at 24 h, 50 µM ([1]; BV-2, 50 µM): 2%
viability at 24 h, 100 µM ([1]; BV-2, 100 µM, vs DMSO): 1.3%
IC50 ([2]; read-out: IMMUNOTOXICTY IC50): 18.9 µM
IC50 ([2]; read-out: IMMUNOTOXICTY pIC (converted)): 19.1 µM
